# Reference: ChEMBL document CHEMBL1146011, “Diaryl substituted pyrrolidinones and pyrrolones as 5-HT2C inhibitors: synthesis and biological evaluation” (Bioorg Med Chem Lett, 2006)
# Active and inactive are the calls of the source. The rule behind the calls is not given here.
# How the values were obtained:
# [1] = biological target: 5-hydroxytryptamine receptor 2B (Homo sapiens, UniProt P41595); assay: Binding affinity to human 5HT2B receptor
# [2] = biological target: 5-hydroxytryptamine receptor 2A (Homo sapiens, UniProt P28223); assay: Binding affinity to human 5HT2A receptor
# Chain of 5-hydroxytryptamine receptor 2A (P28223 whole entry): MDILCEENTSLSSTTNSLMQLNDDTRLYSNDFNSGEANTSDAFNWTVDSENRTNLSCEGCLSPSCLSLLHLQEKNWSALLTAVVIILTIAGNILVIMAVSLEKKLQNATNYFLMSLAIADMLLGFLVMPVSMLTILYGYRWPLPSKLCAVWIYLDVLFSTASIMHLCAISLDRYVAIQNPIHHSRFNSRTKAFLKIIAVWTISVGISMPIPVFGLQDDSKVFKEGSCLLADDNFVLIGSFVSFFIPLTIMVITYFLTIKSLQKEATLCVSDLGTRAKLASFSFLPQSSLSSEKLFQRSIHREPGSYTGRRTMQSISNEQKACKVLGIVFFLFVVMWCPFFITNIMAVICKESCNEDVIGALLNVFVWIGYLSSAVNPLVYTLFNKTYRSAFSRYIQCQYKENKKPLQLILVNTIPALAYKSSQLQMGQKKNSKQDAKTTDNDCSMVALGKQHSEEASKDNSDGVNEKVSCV
# [3] = biological target: T1, 5-hydroxytryptamine receptor 2C (Homo sapiens, UniProt P28335); assay: Binding affinity to human 5HT2C receptor
# T1 sequence (P28335 whole entry): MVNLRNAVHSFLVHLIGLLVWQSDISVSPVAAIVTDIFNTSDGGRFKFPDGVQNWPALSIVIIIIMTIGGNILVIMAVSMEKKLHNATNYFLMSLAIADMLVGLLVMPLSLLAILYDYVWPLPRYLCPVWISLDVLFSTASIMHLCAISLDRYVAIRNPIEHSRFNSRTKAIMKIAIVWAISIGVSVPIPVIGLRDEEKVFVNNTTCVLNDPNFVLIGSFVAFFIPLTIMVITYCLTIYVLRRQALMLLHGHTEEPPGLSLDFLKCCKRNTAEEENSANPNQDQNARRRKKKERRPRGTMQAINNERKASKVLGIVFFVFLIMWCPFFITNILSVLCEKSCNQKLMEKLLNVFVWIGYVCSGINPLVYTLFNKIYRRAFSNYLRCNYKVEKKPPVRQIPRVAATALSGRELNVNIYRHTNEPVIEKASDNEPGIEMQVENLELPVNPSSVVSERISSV
# [4] = Plasma clearance in orally dosed rat; assay type: ADME, organism-based; conditions: po
# [5] = Half life in orally dosed rat; assay type: ADME, organism-based; conditions: in vivo, po
# Rattus norvegicus [6] = assay: Volume of distribution in orally dosed rat; assay type: ADME, organism-based; conditions: in vivo, po
# [7] = Bioavailability in orally dosed rat; assay type: ADME, organism-based; conditions: in vivo, po
# [8] = Ratio of drug level in brain against plasma in orally dosed rat; assay type: ADME, organism-based; conditions: po, read-out: BPR
# Rattus norvegicus [9] = assay: Drug level in orally dosed rat brain; assay type: ADME, organism-based; conditions: in vivo, po
# [10] = biological target: Beta-2 adrenergic receptor (Homo sapiens) (UniProt P07550); assay: Binding affinity to human adrenergic beta-2 receptor
# Chain of Beta-2 adrenergic receptor (Homo sapiens) (P07550 whole entry, looked up): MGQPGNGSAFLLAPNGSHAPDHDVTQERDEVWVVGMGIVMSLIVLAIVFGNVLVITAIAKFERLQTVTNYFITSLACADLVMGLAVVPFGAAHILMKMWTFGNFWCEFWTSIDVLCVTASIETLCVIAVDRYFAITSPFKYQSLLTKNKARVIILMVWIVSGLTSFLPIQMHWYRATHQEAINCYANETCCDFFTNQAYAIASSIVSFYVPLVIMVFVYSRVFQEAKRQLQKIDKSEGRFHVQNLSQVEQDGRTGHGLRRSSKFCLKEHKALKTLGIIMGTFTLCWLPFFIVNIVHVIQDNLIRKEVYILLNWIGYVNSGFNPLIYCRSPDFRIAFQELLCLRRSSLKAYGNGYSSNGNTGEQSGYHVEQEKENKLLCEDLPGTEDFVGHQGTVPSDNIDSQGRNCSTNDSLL
# [11] = biological target: 5-hydroxytryptamine receptor 7 (Homo sapiens, UniProt P34969); assay: Binding affinity to human 5HT7 receptor
# Chain of 5-hydroxytryptamine receptor 7 (P34969 whole entry): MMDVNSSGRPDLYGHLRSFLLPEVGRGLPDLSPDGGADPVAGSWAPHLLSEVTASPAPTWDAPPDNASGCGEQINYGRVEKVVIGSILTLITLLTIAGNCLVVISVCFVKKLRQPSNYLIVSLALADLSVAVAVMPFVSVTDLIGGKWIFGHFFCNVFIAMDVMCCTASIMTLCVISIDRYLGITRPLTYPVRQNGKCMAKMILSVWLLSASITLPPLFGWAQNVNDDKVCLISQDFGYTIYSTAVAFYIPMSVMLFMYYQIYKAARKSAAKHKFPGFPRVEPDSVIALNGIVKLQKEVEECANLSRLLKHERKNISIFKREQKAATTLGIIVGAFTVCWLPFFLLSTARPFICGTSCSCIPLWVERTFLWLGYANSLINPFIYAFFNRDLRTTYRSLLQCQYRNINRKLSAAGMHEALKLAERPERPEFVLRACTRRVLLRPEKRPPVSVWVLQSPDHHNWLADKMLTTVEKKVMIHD
# [12] = biological target: T2, 5-hydroxytryptamine receptor 1A (Homo sapiens, UniProt P08908); assay: Binding affinity to human 5HT1A receptor
# T2 sequence (P08908 whole entry): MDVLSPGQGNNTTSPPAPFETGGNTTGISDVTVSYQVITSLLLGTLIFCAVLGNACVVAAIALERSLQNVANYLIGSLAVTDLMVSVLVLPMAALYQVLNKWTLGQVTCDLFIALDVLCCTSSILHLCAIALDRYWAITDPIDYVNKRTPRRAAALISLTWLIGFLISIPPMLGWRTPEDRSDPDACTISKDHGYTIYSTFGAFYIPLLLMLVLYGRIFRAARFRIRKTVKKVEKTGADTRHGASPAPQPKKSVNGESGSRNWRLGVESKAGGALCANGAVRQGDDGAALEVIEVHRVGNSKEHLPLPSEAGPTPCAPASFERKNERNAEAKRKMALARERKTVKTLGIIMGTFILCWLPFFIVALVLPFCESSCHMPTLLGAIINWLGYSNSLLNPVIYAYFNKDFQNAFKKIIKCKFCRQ
# [13] = biological target: 5-hydroxytryptamine receptor 1D (Homo sapiens, UniProt P28221); assay: Binding affinity to human 5HT1D receptor
# Chain of 5-hydroxytryptamine receptor 1D (P28221 whole entry): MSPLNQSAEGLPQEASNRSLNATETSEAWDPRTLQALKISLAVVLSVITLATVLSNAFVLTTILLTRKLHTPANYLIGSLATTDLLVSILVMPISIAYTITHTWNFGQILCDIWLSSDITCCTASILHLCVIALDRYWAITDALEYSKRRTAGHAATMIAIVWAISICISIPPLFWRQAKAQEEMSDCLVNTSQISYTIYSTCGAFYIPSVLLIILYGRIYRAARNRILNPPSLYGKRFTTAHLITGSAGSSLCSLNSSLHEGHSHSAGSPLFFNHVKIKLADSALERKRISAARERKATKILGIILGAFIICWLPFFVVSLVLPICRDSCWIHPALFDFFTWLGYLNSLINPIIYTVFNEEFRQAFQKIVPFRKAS
# [14] = biological target: 5-hydroxytryptamine receptor 6 (Homo sapiens, UniProt P50406); assay: Binding affinity to human 5HT6 receptor
# Chain of 5-hydroxytryptamine receptor 6 (P50406 whole entry): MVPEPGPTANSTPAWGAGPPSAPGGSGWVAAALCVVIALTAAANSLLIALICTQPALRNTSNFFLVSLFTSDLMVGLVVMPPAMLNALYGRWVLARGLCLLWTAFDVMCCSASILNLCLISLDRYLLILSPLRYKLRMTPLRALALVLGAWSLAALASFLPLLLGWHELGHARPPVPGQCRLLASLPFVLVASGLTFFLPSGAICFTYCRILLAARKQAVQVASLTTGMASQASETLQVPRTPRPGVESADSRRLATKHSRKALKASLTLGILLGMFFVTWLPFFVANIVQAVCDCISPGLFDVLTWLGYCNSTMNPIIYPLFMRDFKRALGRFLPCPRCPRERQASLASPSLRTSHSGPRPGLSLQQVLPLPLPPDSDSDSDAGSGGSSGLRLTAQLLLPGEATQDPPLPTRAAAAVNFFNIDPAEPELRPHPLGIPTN
# [15] = biological target: 5-hydroxytryptamine receptor 1B (Homo sapiens, UniProt P28222); assay: Binding affinity to human 5HT1B receptor
# Chain of 5-hydroxytryptamine receptor 1B (P28222 whole entry): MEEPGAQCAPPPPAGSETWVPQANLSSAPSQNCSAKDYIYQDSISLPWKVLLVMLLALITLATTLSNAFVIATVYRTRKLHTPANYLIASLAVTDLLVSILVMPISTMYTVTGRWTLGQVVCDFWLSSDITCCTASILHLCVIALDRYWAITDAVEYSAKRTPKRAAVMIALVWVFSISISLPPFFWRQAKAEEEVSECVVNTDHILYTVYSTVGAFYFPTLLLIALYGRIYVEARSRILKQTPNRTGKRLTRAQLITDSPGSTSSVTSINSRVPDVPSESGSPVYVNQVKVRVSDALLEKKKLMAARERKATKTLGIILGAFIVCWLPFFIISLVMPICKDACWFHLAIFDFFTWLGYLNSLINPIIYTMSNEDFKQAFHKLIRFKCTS
# [16] = biological target: T3, Adrenergic receptor alpha-1 (Homo sapiens, UniProt P35348+P25100+P35368); assay: Binding affinity to human adrenergic alpha-1 receptor; assay type: protein assay
# T3 sequence (P35348 whole entry): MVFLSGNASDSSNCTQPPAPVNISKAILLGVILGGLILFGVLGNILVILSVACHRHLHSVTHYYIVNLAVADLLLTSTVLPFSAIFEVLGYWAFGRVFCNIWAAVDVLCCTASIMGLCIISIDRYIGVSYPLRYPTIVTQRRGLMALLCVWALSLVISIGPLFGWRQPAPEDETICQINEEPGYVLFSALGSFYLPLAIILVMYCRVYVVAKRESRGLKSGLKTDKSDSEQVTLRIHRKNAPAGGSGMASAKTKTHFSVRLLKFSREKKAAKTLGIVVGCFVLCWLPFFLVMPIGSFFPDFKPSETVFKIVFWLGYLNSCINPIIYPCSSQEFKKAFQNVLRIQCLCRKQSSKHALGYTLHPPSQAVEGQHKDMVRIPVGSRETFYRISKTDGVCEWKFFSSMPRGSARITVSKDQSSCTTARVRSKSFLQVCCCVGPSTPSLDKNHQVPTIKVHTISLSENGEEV
# T3 sequence (P25100 whole entry): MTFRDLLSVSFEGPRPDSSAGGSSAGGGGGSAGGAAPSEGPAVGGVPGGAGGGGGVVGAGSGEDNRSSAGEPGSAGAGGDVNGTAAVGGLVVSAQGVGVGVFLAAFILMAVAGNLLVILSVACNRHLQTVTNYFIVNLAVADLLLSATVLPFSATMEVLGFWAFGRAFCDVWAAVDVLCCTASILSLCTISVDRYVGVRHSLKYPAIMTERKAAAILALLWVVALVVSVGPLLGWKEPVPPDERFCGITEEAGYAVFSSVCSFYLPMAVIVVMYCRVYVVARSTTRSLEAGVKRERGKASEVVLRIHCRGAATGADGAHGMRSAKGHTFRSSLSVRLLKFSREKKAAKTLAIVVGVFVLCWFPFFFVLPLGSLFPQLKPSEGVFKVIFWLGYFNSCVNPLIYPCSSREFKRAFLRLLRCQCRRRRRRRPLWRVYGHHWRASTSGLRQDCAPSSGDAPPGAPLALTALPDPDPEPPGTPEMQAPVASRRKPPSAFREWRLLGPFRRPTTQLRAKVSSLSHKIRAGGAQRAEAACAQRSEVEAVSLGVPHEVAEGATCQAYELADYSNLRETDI
# T3 sequence (P35368 whole entry): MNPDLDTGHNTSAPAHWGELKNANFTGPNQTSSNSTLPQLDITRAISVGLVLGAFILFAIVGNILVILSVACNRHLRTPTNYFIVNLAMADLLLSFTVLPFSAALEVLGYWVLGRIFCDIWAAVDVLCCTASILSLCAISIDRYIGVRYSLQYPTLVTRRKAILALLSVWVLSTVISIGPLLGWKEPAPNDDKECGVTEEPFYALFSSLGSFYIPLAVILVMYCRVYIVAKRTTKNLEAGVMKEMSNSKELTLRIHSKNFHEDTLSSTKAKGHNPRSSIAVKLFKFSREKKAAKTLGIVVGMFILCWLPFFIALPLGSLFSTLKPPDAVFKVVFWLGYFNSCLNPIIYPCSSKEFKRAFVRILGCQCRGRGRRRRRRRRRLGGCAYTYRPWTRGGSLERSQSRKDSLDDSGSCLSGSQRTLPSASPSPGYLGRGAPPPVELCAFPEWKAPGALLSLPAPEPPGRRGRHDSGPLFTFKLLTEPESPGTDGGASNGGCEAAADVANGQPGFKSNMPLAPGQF
# [17] = biological target: D(2) dopamine receptor (Homo sapiens) (UniProt P14416); assay: Binding affinity to human dopamine D2 receptor
# Chain of D(2) dopamine receptor (Homo sapiens) (P14416 whole entry): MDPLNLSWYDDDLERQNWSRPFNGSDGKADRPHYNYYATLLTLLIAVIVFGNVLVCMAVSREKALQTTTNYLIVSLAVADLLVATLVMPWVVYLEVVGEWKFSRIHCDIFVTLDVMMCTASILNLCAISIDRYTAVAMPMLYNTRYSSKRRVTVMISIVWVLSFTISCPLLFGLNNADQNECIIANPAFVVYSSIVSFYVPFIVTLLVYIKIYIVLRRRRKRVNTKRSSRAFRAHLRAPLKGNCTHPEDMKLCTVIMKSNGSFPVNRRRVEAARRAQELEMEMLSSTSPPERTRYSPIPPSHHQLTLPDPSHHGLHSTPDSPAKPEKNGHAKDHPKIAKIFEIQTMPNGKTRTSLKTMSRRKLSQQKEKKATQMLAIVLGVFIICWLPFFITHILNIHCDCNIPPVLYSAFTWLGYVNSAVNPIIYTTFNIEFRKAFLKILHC
# D(3) dopamine receptor = D(3) dopamine receptor (Homo sapiens, UniProt P35462); assay: Binding affinity to human dopamine D3 receptor
# Chain of D(3) dopamine receptor (P35462 whole entry): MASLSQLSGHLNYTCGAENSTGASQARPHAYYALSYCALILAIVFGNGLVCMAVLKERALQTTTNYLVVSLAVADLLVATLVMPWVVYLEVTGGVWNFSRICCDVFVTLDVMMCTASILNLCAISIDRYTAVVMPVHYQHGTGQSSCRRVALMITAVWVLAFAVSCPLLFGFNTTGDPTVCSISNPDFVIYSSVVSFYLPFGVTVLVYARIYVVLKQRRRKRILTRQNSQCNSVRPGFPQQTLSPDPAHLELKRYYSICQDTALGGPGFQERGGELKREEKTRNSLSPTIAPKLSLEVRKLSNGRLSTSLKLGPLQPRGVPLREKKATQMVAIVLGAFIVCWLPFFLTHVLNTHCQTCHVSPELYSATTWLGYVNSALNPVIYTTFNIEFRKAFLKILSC
# Chain of 5-hydroxytryptamine receptor 2B (P41595 whole entry): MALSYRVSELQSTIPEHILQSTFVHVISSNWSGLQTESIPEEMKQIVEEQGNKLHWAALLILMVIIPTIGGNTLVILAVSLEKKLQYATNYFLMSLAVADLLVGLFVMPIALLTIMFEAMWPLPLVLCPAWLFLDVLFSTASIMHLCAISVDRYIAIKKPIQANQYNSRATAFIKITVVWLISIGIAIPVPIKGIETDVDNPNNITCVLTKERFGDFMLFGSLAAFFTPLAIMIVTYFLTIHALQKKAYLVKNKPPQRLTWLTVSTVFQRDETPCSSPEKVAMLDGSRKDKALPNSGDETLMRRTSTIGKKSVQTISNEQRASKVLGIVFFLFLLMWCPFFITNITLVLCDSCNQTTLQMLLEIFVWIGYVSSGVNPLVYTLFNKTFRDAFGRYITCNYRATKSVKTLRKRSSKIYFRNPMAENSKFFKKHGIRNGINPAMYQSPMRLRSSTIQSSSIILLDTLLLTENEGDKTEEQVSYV
Structure (SMILES),Ki [1],Ki [2],Ki [3],also measured
COc1ccc(N2CC=C(c3ccc(Cl)c(Cl)c3)C2=O)cc1OCCN1CCC(C)CC1,> 794 nM,794 nM,3.16 nM,CL/F [4]: 11 mL/min/kg; half-life [5]: 4.5 h; Vdss (Rattus norvegicus [6]): 4 L; bioavailability [7]: 52%; Kp [8]: 7.2; Drug uptake (Rattus norvegicus [9]): 1058 ng/g
COc1ccc(N2CCC(C)(c3ccc(Cl)c(Cl)c3)C2=O)cc1OCCN1CCC(C)CC1 (stereo not given),> 794 nM,–,5.01 nM,Log Ki [2]: > -6.3; CL/F [4]: 20 mL/min/kg; bioavailability [7]: 50%; Kp [8]: 1.8
COc1ccc(N2CCC(C)(c3ccc(Cl)c(Cl)c3)C2=O)cc1OCCN1CCCCC1 (stereo not given),1000 nM,631 nM,5.01 nM,CL/F [4]: 65 mL/min/kg; bioavailability [7]: 13%; Kp [8]: 5
COc1ccc(N2CCC(c3ccc(Cl)c(Cl)c3)C2=O)cc1OCCN1CCC(C)(C)CC1 (stereo not given),> 1000 nM,398 nM,12.6 nM,–
COc1ccc(N2CCC(c3ccc(F)cc3)C2=O)cc1OCCN1CCCCC1 (stereo not given),> 5010 nM,> 2510 nM,100 nM,–
COc1ccc(N2CC=C(c3ccc(Cl)cc3)C2=O)cc1OCCN1CCC(C)CC1,> 1580 nM,631 nM,6.31 nM,–
COc1ccc(N2CC=C(c3ccc(Cl)c(Cl)c3)C2=O)cc1OCCN1CCCCC1,631 nM,631 nM,0.794 nM,Activity [10]: inactive; CL/F [4]: 59 mL/min/kg; Ki [11]: > 3160 nM; Ki [12]: > 3160 nM; half-life [5]: 2.8 h; Ki [13]: > 3160 nM; Vdss (Rattus norvegicus [6]): 10.7 L; bioavailability [7]: 11%; Kp [8]: 3.9; Ki [14]: > 3160 nM; Ki [15]: > 3160 nM; Log Ki [16]: -5.74; Activity [17]: inactive; Drug uptake (Rattus norvegicus [9]): 320 ng/g; Ki (D(3) dopamine receptor): 457 nM
COc1ccc(N2CC=C(c3ccc(F)cc3)C2=O)cc1OCCN1CCCCC1,1000 nM,398 nM,6.31 nM,–
CC(=O)Nc1ccc(N2CCC(c3ccc(Cl)c(Cl)c3)C2=O)cc1OCCN1CCCCC1 (stereo not given),> 1580 nM,> 3160 nM,316 nM,–
COc1ccc(N2CCC(c3ccc(Cl)c(Cl)c3)C2=O)cc1OCCN1CCCCC1 (stereo not given),1580 nM,501 nM,12.6 nM,–
COc1ccc(N2CCC(c3cccc(F)c3)C2=O)cc1OCCN1CCCCC1 (stereo not given),> 1580 nM,> 7940 nM,100 nM,–
COc1ccc(C2=CCN(c3ccc(Cl)c(Cl)c3)C2=O)cc1OCCN1CCCCC1,126 nM,1260 nM,5.01 nM,–
COc1ccc(C2(C)CCN(c3ccc(Cl)c(Cl)c3)C2=O)cc1OCCN1CCCCC1 (stereo not given),–,501 nM,10 nM,Log Ki [1]: > -6.3
O=C1C(c2ccc(Cl)c(Cl)c2)=CCN1c1ccc(Cl)c(OCCN2CCCCC2)c1,> 1580 nM,> 1260 nM,63.1 nM,–
COc1ccc(N2CC=C(c3ccc(Cl)c(Cl)c3)C2=O)cc1OCCN1CCC(C(C)C)CC1,> 1000 nM,> 794 nM,12.6 nM,–
O=C1C(c2ccc(Cl)c(Cl)c2)CCN1c1ccc(OC(F)(F)F)c(OCCN2CCCCC2)c1 (stereo not given),1580 nM,3160 nM,794 nM,–
COc1ccc(N2CC=C(c3ccc(OC)c(OCCN4CCCCC4)c3)C2=O)cc1Cl,–,> 6310 nM,5.01 nM,Log Ki [1]: > -6.4
COc1ccc(N2CC=C(c3cccc(Cl)c3)C2=O)cc1OCCN1CCC(C)CC1,501 nM,794 nM,5.01 nM,–
COc1ccc(N2CC=C(c3ccc(Cl)c(Cl)c3)C2=O)cc1OCCN1CCC(C)(C)CC1,316 nM,> 6310 nM,3.98 nM,–
COc1ccc(N2CCC(c3ccc(OC)c(OCCN4CCCCC4)c3)C2=O)cc1F (stereo not given),> 1580 nM,> 1000 nM,15.8 nM,–
COc1ccc(N2CC=C(c3ccc(OC)c(OCCN4CCCCC4)c3)C2=O)cc1F,> 1580 nM,> 3160 nM,6.31 nM,–
CC(=O)Nc1ccc(N2CC=C(c3ccc(Cl)c(Cl)c3)C2=O)cc1OCCN1CCCCC1,> 1580 nM,> 1580 nM,50.1 nM,–
COc1ccc(N2CCC(c3ccc(Cl)c(Cl)c3)C2=O)cc1OCCN1CCC(C)CC1 (stereo not given),2000 nM,398 nM,12.6 nM,–
COc1ccc(N2CC=C(c3ccc(Cl)cc3)C2=O)cc1OCCN1CCCCC1,> 1580 nM,1000 nM,7.94 nM,–
COc1ccc(N2CC=C(c3ccc(C(F)(F)F)cc3)C2=O)cc1OCCN1CCC(C)CC1,> 10000 nM,1580 nM,12.6 nM,–
COc1ccc(N2CC=C(c3ccc(C)cc3)C2=O)cc1OCCN1CCC(C)CC1,1580 nM,631 nM,1.58 nM,–
